Results as given in patent publication US12060334B2, “3-substituted phenazine derivatives as antimicrobial agents” (University of Florida Research Foundation, Incorporated, priority 2021, dated 2024).
Values after ≈ are worked out from the molar mass of the structure shown. Values joined by “and” are separate entries in the source; they are usually repeats but may differ in a detail not shown here. Identical values can stand only once. “Also recorded” adds a separate entry of the source. Like-named read-outs stand apart in the source and are kept apart here. Marks after values point to notes of the source that are not given here.

Tests used:
[1] = system: S. aureus 156; experiment: MIC assay against clinical isolate; assay type: cell-based; settings: Staphylococcus aureus, 156, read-out: MIC S. aureus 156
[2] = system: human red blood cells; experiment: Hemolysis assay with red blood cells
Description: Hemolysis assays are used to determine the membrane-lysis activity of a compound, which is of particular interest to this work as membrane-lysing agents (e.g., QACs) can eradicate biofilms.
Cytotoxicity Assay against HEK-293 Cells.^48 The viability of HEK-293 cells was assessed by the MTT assay. The cells were cultured in DMEM medium containing 10% fetal bovine serum and 100 U/mL penicillin and streptomycin. The cells (10^4 cells/well) were seeded onto a 96-well plate and maintained at 37° C. in a humidified incubator under 5% CO2 overnight. […] After incubation at 37° C. for 72 hours, 10 μL of MTT (5 mg/mL) in PBS was added to each well and incubated for 4 hours, followed by the aspiration of the medium. Dimethyl sulfoxide (DMSO, 100 μL) was then added to each well to dissolve the MTT in the wells, and the plate was agitated for 1 hour. The optical density (OD) was measured at 570 nm using a UV/vis microplate spectrophotometer (BioTek). The percent inhibition was calculated as follows: Inhibition (%)=(1−test OD570/non-treated OD570)×100%. The data were analyzed by Origin. Hemolysis Assay with Red Blood Cells. […] The washing was repeated three times with the buffer. In 96-well plate, test compounds were added to the buffer from DMSO stocks. […] The plate was then incubated for 1 hour at 37° C. After incubation, the plate was centrifuged for 5 minutes at 3,500 rpm before 80 μL of the supernatant was transferred to another 96-well plate to obtain an optical density (OD) read at 405 nm. DMSO served as the negative control (0% hemolysis) while Triton X served as the positive control (100% hemolysis) in these experiments. The percent hemolysis was calculated as (OD405 of the compound treated RBCs−OD405 DMSO control)/(OD405 Triton X treated RBCs−OD405 buffer) from three independent experiments.

[3] = system: MRSE 35984 biofilms; experiment: Calgary Biofilm Device (CBD) assay; settings: for MBC: Staphylococcus epidermidis, MRSE, read-out: MRSE 35984 MBC
[4] = system: MRSA 44 biofilms; experiment: Calgary Biofilm Device (CBD) assay; settings: biofilm eradication in CBD assay
[5] = system: S. aureus 138; experiment: MIC assay against clinical isolate; assay type: cell-based; settings: Staphylococcus aureus
[6] = system: MRSA 1; experiment: MIC assay against clinical isolate; assay type: cell-based, S. aureus; settings: Staphylococcus aureus
[7] = system: S. aureus 129; experiment: MIC assay against clinical isolate; assay type: cell-based; settings: Staphylococcus aureus
[8] = system: E. faecalis OG1RF biofilms; experiment: Calgary Biofilm Device (CBD) assay; settings: Enterococcus faecalis, OG1RFBIOFILMS, read-out: E.faecalis OG1RF MBC
[9] = system: S. aureus 147; experiment: MIC assay against clinical isolate; assay type: cell-based; settings: Staphylococcus aureus, 147; clinical isolate; read-out: MIC S. aureus 147
[10] = system: MRSA-1707; experiment: MIC susceptibility assay (broth microdilution); settings: 16 h; for MIC: Staphylococcus aureus, MRSA, read-out: MIC MRSA-1707, planktonic growth inhibition, 16 h, 37° C.; for MIC MRSA-1707: planktonic growth inhibition, 37° C.
Description: (§1) (MIC values were further supported by spectrophotometric readings at OD600). The concentration range tested for each HP compound during this study was 0.05 to 50 μM. DMSO served as our vehicle and negative control in each microdilution MIC assay. DMSO was serially diluted with a top concentration of 0.5% v/v.

[11] = system: MRSA 2; experiment: MIC assay against clinical isolate; assay type: cell-based, S. aureus; settings: Staphylococcus aureus
[12] = system: VRE 700221 biofilms; experiment: Calgary Biofilm Device (CBD) assay; settings: Enterococcus, read-out: VRE 700221 MBC
[13] = system: MRSE 35984; experiment: MIC susceptibility assay (broth microdilution); settings: Staphylococcus epidermidis, MRSE, 16 h, read-out: MIC MRSE 35984
Description: as §1

[14] = system: HeLa cells; experiment: LDH release assay for HeLa cytotoxicity; settings: read-out: HeLa Cell Cytotox. (IC50), 24-h, tested at 25, 50 and 100 μM
[15] = system: Mtb CDC1551; experiment: microbe, parasite or virus in culture; assay type: cell-based, Mycobacterium tuberculosis
[16] = system: MRSA-44; experiment: MIC susceptibility assay (broth microdilution); settings: Staphylococcus aureus, 16 h, read-out: MIC MRSA-44
Description: as §1

[17] = system: MRSA, MRSE and VRE strains; experiment: MIC assays, summary statements over several Gram-positive strains; settings: for MICs against all Gram-positive strains in the panel: result in words
Description: as §1

[18] = system: J774 MΦ; experiment: Alamar Blue cytotoxicity assay, J774 macrophages; settings: read-out: J774 MΦ Cytotox. (IC50), 24-h
[19] = system: E. faecalis OG1RF; experiment: MIC susceptibility assay (broth microdilution); settings: Enterococcus faecalis, 16 h, read-out: MIC E. faecalis OG1RF
Description: as §1

[20] = system: HepG2 cells; experiment: Alamar Blue cytotoxicity assay, HepG2; settings: read-out: Hep G2 Cytotox. (IC50), 24-h
[21] = system: S. epidermidis; experiment: Antibacterial MIC, initial phenazine collection; assay type: cell-based; settings: Staphylococcus epidermidis; initial discovery; read-out: MIC against S. epidermidis
[22] = system: S. aureus; experiment: Antibacterial MIC, initial phenazine collection; assay type: cell-based; settings: Staphylococcus aureus; initial discovery; read-out: MIC against S. aureus
[23] = system: isdB, sfaA, sbnC, MW0695 transcripts in MRSA-1707 biofilms; settings: at 5 μM, reported earlier; cited from earlier work
[24] = system: MRSA-1707 biofilms; experiment: Calgary Biofilm Device (CBD) assay; settings: Staphylococcus aureus, read-out: MRSA-1707 MBC
[25] = pKa determination by UV-vis spectroscopy; assay type: physicochemical
Description: (c) pKa determination of select HP analogues.^36 Dissociation constants (pKa) for select HP analogues were determined using UV-vis spectroscopy and the Henderson-Hasselbalch equation. Buffers were prepared using potassium phosphate monobasic (KH2PO4) and sodium phosphate dibasic ([…]) in a 1:1 solution of water:methanol to achieve a pH range of 4.07 to 9.66 (ammonium hydroxide was added to prepare buffer pH over 9.80). Compounds were added from 10 mM stock solutions in dimethyl sulfoxide (25 μL) to 1975 μL of each buffer to each evaluate analogue to yield a final compound concentration of 125 μM. Full spectral scans were performed from 200 to 800 nm in 2 nm increments to determine λmax values for the protonated phenol (HA) and the deprotonated phenolate species (A^−). The change in absorption at each determined λmax in relation to pH was monitored in each buffer and plotted as absorbance versus pH for each species. The pKa was first estimated by determining the pH of the point of intersection of the two linear curves. The visual estimation was confirmed by plotting pH versus log [A^−/HA]. The resulting plot yielded a linear regression line with a Y-intercept corresponding to a calculated pKa value.

[26] = system: HEK-293 cells; experiment: MTT cytotoxicity assay, HEK-293; settings: read-out: HEK-293 Cytotox. (IC50), 72-h
[27] = system: S. aureus UAMS-1; experiment: S. aureus dermal (dorsal) wound infection model in mice; settings: BALB/c mice, topical 2% PEG ointment every 12 hours, three consecutive days
Description: (§2) In separate experiments, wounds were created on the mouse's dorsal mid-section using a biopsy punch to remove the dermal layer. The resulting wound was inoculated with either S. aureus UAMS-1 (1×10^7 CFU/mL), or E. faecalis OG1RF ([…] CFU/mL) to establish infection.
Staphylococcus aureus strain UAMS-1, a well-characterized antibiotic susceptible clinical isolate commonly used to study the organism's biofilm formation and colonization properties, was used in animal experiments during these studies.^59 Female BALB/c mice 4 to 6 weeks of age were obtained from Charles River Laboratories International, Inc. (Wilmington, MA) and housed individually according to approved University of Rochester Medical Center Council on Animal Research (UCAR) protocol UCAR-101864/2017-022.
S. aureus Dermal Wound Infection Model. The effects of ointment compilations were evaluated for in vivo antimicrobial activity using a dermal wound infection mouse model, as previously described.^52 Briefly, mice were anesthetized by intraperitoneal injection with a mixture of 100 mg kg^−1 Ketamine (Hospira Inc., Lake Forest IL) and 10 mg kg^−1 Xylazine (Lloyd Laboratories, Shenandoah IA) in PBS. Two mg kg^−1 meloxicam (Henry Schein Animal Health, Portland, ME) was administered prior to dermal wounding. […]

[28] = system: isdB, sfaA, sbnC, MW0695 transcripts in MRSA-1707 biofilms; experiment: RT-qPCR of iron uptake genes in MRSA biofilms; settings: 4 h treatment at 1 μM or 1/10×MBEC
[29] = system: E. faecalis OG1RF; experiment: E. faecalis dorsal wound infection model in mice; settings: C57BL/6J mice, topical PEG ointment once a day, day 3
Description: as §2
Enterococcus faecalis strain OG1RF was used in animal experiments during these investigations. Seven-week old female C57BL/6J mice were purchased from Jackson Laboratories Ltd. and housed according to the University of Florida's approved IACUC protocol 201709769.
E. faecalis Dorsal Wound Infection Model. […] On day 3 (2 days of treatment) post-infection, animals were euthanized and the wounds aseptically excised using a surgical blade and the tissues homogenized in 1 mL of sterile PBS. The homogenates were serially diluted and plated on trypticase soy (TSA) agar containing rifampicin and fusidic acid for bacterial enumeration.

[30] = system: S. aureus strain ATCC 29213; experiment: MIC against methicillin-susceptible strain; assay type: cell-based; settings: Staphylococcus aureus, ATCC29213; strain susceptible to methicillin
[31] = Mycobacterium tuberculosis, CDC1551, 120 h

Row | SMILES | MIC [1] [µM] | % Hemolysis at 200 μM ([2]; human RBCs, 1 hour, 37° C.) [%] | MIC [5] [µM] | MIC [6] [µM] | MIC [7] [µM] | MBC [8] [µM] | MIC [9] [µM] | MIC [10] [µM] | MIC [11] [µM] | MIC [13] [µM] | MIC [16] [µM] | MIC [19] [µM] | also measured
1 | Oc1c(Br)c(Cl)c(Br)c2nc3c(Cl)cc(Cl)cc3nc12 [Compound 34, 2,4-Dibromo-3,6,8-trichlorophenazin-1-ol] | 0.47 (≈ 0.215 µg/mL) | ≤1 | 0.94 (≈ 0.43 µg/mL) | 1.25 (≈ 0.572 µg/mL) | 0.63 (≈ 0.288 µg/mL) | 3.13 (≈ 1.43 µg/mL) | 0.47 (≈ 0.215 µg/mL) | 0.59 (≈ 0.27 µg/mL) | 0.94 (≈ 0.43 µg/mL) | ≤ 0.05 | 0.15 (≈ 0.0686 µg/mL) | 0.3 (≈ 0.137 µg/mL) | log10 reduction of viable MRSE biofilm cells ([3]; CFU counts from CBD pegs, at the MBEC value): 3.18±0.40 log10; MBC [3]: 0.59 µM (≈ 0.27 µg/mL); log10 reduction of viable CFUs, MRSE 35984 biofilm ([3]; at 3.13 μM): ~5 log10; MRSA 44 MBEC [4]: 6.25^b/6.25^b μM; MIC MRSA-1707 [10]: 0.59^a μM and 0.59 μM; MBC [12]: 0.39 µM (≈ 0.178 µg/mL); IC50 [14]: > 100 µM; MIC [15, 31]: 0.8 µM (≈ 0.366 µg/mL); MICs against all Gram-positive strains in the panel [17]: sub-micromolar; IC50 [18]: > 200 µM; IC50 [20]: > 200 µM
2 | Oc1c(Br)ccc2nc3ccccc3nc12 [Compound 1, 2-bromo-1-hydroxyphenazine, reference compound] |  |  |  |  |  |  |  | 3.13 (≈ 0.861 µg/mL) |  | 3.13 (≈ 0.861 µg/mL) | 3.13 (≈ 0.861 µg/mL) | 18.8 (≈ 5.17 µg/mL) | MIC [21]: 6.25 µM (≈ 1.72 µg/mL); MIC [22]: 6.25 µM (≈ 1.72 µg/mL)
3 | O=C(O)CN(CCN(CC(=O)O)CC(=O)O)CC(=O)O [EDTA, ethylenediaminetetraacetic acid, reference compound] |  |  |  |  |  | > 2000 |  |  |  |  | 125 (≈ 36.5 µg/mL) | 500 (≈ 146 µg/mL) | % Hemolysis at 200 μM ([2]; human, 1 h, pH 7.2): ≤1%; up-regulation of panel of iron uptake genes [23]: did not upregulate this panel of iron uptake genes; MBC [3]: 1000 µM (≈ 292 µg/mL); MBC [24]: > 2000 µM
4 | Oc1c(Br)c(Br)c(Br)c2nc3ccccc3nc12 [Compound 150] |  |  |  |  |  |  |  | 0.1 (≈ 0.0433 µg/mL) |  | 0.3 (≈ 0.13 µg/mL) |  |  | melting point: 222 to 224 °C
5 | c1ccc(CN(CCN(Cc2ccccn2)Cc2ccccn2)Cc2ccccn2)nc1 [TPEN, N,N,N′,N′-tetrakis(2-pyridinylmethyl)-1,2-ethanediamine, reference compound] |  | ≤1 |  |  |  | 500 (≈ 212 µg/mL) |  | 46.9 (≈ 19.9 µg/mL) |  |  | 46.9 (≈ 19.9 µg/mL) | 46.9 (≈ 19.9 µg/mL) | up-regulation of panel of iron uptake genes [23]: did not upregulate this panel of iron uptake genes; MBC [12]: 188 µM (≈ 79.8 µg/mL); MBC [24]: 375 µM (≈ 159 µg/mL)
6 | Cc1cccc2nc3c(O)c(Br)c(Cl)c(Br)c3nc12 [Compound 29, 2,4-Dibromo-3-chloro-6-methylphenazin-1-ol] | 0.08 (≈ 0.0322 µg/mL) | ≤1 | 0.08 (≈ 0.0322 µg/mL) | 0.06 (≈ 0.0241 µg/mL) | 0.12 (≈ 0.0483 µg/mL) |  | 0.12 (≈ 0.0483 µg/mL) |  | 0.12 (≈ 0.0483 µg/mL) |  | 0.08 (≈ 0.0322 µg/mL) | 0.3 (≈ 0.121 µg/mL) | pKa [25]: 6.79; MIC MRSA-1707 [10]: 0.08^a μM; IC50 [26]: 18.3 ± 5.8 µM; log10 reduction in CFU per lesion of S. aureus UAMS-1 compared to vehicle [27]: 0.82 log10; IC50 [14]: > 100 µM; MIC [15]: 1.59 µM (≈ 0.64 µg/mL); MIC [15, 31]: 1.59 µM (≈ 0.64 µg/mL); iron starvation / up-regulation of iron uptake genes in MRSA-1707 biofilms [28]: induction of iron starvation; also recorded: up-regulating iron uptake genes; also recorded: induced rapid iron starvation; also recorded: rapidly induce iron starvation; MIC ([17]; read-out: MIC against MRSA, MRSE and VRE strains): 0.05 to 0.1 µM (≈ 0.0201 to 0.0402 µg/mL); MIC ([17]; read-out: MIC against MRSA/MRSE strains): 0.075 µM (≈ 0.0302 µg/mL); MICs against all Gram-positive strains in the panel [17]: sub-micromolar; log10 reduction of E. faecalis OG1RF compared to vehicle control [29]: 1.73 log10; IC50 [18]: > 200 µM; IC50 [20]: > 200 µM
7 | COc1cccc(OC)c1C(=O)N[C@@H]1C(=O)N2[C@@H]1SC(C)(C)[C@@H]2C(=O)O [Methicillin, reference compound] | 37.5 (≈ 14.3 µg/mL) |  | 37.5 (≈ 14.3 µg/mL) | 37.5 (≈ 14.3 µg/mL) | 37.5 (≈ 14.3 µg/mL) |  | 6.25 (≈ 2.38 µg/mL) |  | > 100 |  |  |  | MIC [30]: 0.78 µM (≈ 0.297 µg/mL)
